The values that follow come from EP3158990A1 (Glano Tech Ltd, priority 2015, dated 2017).

The subject of series [1] is smooth muscle of the corpora cavernosa of rats. The series is described as follows: Relaxation/contraction of rat corpus cavernosum tissue samples (force displacement transducer). The series is classed as cell-based, Wistar-type rats. Particulars: for relaxation of the tissue of the corpora cavernosa: tissue constricted with norepinephrine, scalar solutions 10^-5 M to 10^-3 M. The text has this:
In particular, this model is used for planning experiments aimed at checking the vasodilatory action of NO on vascular smooth muscle cells, since the methodology presented by the authors allows samples of corpus cavernosum tissue to be obtained from rats, on which studies of response to various exogenous molecules can be conducted, to detect their relaxation/contraction effects on smooth muscle cells.
The work we selected and the experimental model on which we based our observations can easily be traced in the following work: G. Italiano, A. Calabrò and F. Pagano of the Urology Institute of Padua University, published in Pharmacology Therapeutics (Vol 30 no 4, 1994 pp. 325-334).
We used 20 adult Wistar-type rats weighing between 175 and 200 g; after having sacrificed the rats we obtained corpus cavernosum tissues as described by the methods and placed these in a Krebs solution (in mM: 118 NaCl, 4,7 KCI, 1,2 KH2PO4, 1,2 MgSO4, 1,5 CaCl2, 25 NaHCO3, 11 glucose).
A single sample was taken from each rat.
The excised tissues were then put in 10 mL Krebs solution and held in place by two metal arms to allow assessment of any changes in the forces observed and assessed by the Grass FT03 model (using a force displacement transducer apparatus to assess the muscle tension of tissues, calibrated in mN). The saline solution containing the tissues (Krebs solution) was kept at pH 7.4 ±0.1 and at 37°C, with oxygenation using a mixture of 95% oxygen and 5% carbon dioxide.

Series [2] deals with rat model with type 1 diabetes induced by streptozotocin. The series is described as follows: In-vivo test of sexual function in diabetic rat models. Further details: species or system male Wistar rats. As to the method: Next we tested the possible beneficial effects of SNO-pantetheine on sexual function in a rat model with type 1 diabetes induced by streptozotocin, which is typically accompanied by deficit of sexual activity.
In short, male Wistar rats were assigned to a cage (45 × 50 × 35 cm) covered in glass and lit with red light. Training took place every day after 5 pm for about 30 min, and after 10 minutes of acclimatisation a female rat in an oestrogenic phase was introduced into the cage. We then observed the sexual behaviour of diabetic rats vs. the relevant controls by measuring standard parameters (Burnett et al., 1995).

Series [3] can be described thus: Analysis of the mixed solution (infrared nitrite peak, visible UV spectrum). In kind it is physicochemical.

Regarding `CC(C)(CO)[C@@H](O)C(=O)NCCC(=O)NCCSN=O` [SNO-pantetheine, S-nitrosothiol of pantetheine], the “relaxation of the tissue of the corpora cavernosa” value in series [1] is “the effect of the norepinephrine was cancelled out”. In addition, in series [2] (Day 0, topical application), the “EL (Ejaculation latency)” value is 423.2 ± 12.5 s, the “IF (Introduction frequency)” value came out at 11.2 ± 0.9 number, the “IL (Introduction latency)” value came to 52.3 ± 3.9 s and the “MF (Mating frequency)” value is 12.0 ± 1.7 number. In series [2] (Day 0, topical application), the “ML (Mating latency)” value was found to be 42.5 ± 2.9 s and the “PEI (Post-ejaculatory interval)” value is 343.3 ± 10.9 s. In series [2] (Day 30, topical application), the “EL (Ejaculation latency)” value came to 375.8 ± 10.8 s, the “IF (Introduction frequency)” value is reported as 14.5 ± 0.8 number, the “IL (Introduction latency)” value came out at 44.7 ± 4.2 s and the “MF (Mating frequency)” value came out at 11.2 ± 0.3 number. Besides, in series [2] (Day 30, topical application), the “ML (Mating latency)” value was 34.3 ± 2.5 s and the “PEI (Post-ejaculatory interval)” value was found to be 386.2 ± 14.3 s. Besides, the “nitrosothiol remains sufficiently stable” value in series [3] (at room temperature, after mixing of phases A and B) is given as “more than 1 hour”.
Turning to `O=C(O)CCCCC1CCSS1` (stereo not drawn) [alpha lipoic acid], the “results of the reaction compared with pantetheine (nitrite consumption, S-nitroso compound formation)” value in series [3] (alpha lipoic acid used as SH group donor instead of pantetheine) is “comparable results”.
`NC[C@H](O)c1ccc(O)c(O)c1` [norepinephrine, reference compound]: the constriction result in series [1] (scalar solutions 10^-8 M to 10^-3 M, Krebs solution pH 7.4, 37°C) is “about 1.5 mN”.
Take S-nitrosothiol of alpha lipoic acid: the “relaxation of the tissue of the corpora cavernosa” value in series [1] was “very similar to that of the S-nitrosothiol of pantetheine”.
